The text below walks through data of paper PMC6981392, “Characterization of a Maltase from an Early-Diverged Non-Conventional Yeast Blastobotrys adeninivorans” (International Journal of Molecular Sciences, 2019).

For experiment [1], the target named is T1, BaAG2 (Blastobotrys adeninivorans, UniProt Z9CO09ION3).
T1 sequence (Z9CO09ION3 1-580): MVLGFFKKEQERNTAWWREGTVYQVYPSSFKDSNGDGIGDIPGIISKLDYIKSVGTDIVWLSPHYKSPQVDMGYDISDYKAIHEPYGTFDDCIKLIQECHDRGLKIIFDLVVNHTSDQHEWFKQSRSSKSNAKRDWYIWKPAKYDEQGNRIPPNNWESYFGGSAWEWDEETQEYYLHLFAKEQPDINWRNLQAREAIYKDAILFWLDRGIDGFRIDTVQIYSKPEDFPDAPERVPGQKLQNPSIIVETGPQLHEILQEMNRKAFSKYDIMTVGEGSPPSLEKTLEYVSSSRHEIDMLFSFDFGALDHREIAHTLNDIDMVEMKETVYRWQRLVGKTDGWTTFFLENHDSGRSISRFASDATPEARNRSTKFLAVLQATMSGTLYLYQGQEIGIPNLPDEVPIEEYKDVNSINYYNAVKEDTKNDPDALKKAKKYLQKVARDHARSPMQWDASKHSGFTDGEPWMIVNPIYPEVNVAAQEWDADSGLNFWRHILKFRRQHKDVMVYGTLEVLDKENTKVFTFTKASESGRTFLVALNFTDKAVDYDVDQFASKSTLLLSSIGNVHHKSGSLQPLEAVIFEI
Kind of experiment: Substrate specificity of BaAG2 on 100 mM sugars and 1 mM pNPG. Particulars: 100 mM sugars, pH 6.5, 30 °C. It is filed as biochemical. The method, then:
Hydrolysis of pNPG was assayed as in [16, 40] according to the release of p-nitrophenol. 100 mM K-phosphate buffer (pH 6.5) was used and reactions were conducted at 30 °C if not stated otherwise. The purified enzyme was unstable if diluted therefore 5 g/L bovine serum albumin (BSA) was added to the dilution buffer as a protein stabilizer to retain its full catalytic activity. […] The content of the released glucose was determined spectrophotometrically as in [16, 47]. The activities (µmoles of glucose released per minute per mg of protein; U/mg) were calculated from initial velocities of the reaction. For kinetic analysis, initial rates of p-nitrophenol or glucose release from substrates were measured at four to seven concentrations ranging from 0.1–3.0 mM for pNPG and 2.5–250 mM for di- and trisaccharides. At least three independent measurements for each substrate and concentration were made. BaAG2 content in reaction mixtures ranged from 0.02 to 3.5 µg/mL. […] The theoretical Mw value of 67,901 Da for the kcat calculation was computed in ExPASy Proteomics Server (http://expasy.org).

The subject of experiment [2] is B. adeninivorans CBS 8244. Also noted: method as in earlier work. The note with it: CBS-KNAW culture collection; cited from earlier work.
Experiment [3] has as its system α-glucosidase of A. niger. Also noted: method as in doi:10.1271/bbb1961.55.2327. The note with it: on maltose; cited from earlier work.
Experiment [4] relates to extracellular α-glucosidase of Schizosaccharomyces pombe. Particulars: on maltose; cited from earlier work.
In experiment [5] the target is T1, BaAG2. Kind of experiment: Inhibition of pNPG hydrolysis by BaAG2.
Description: (§1) 100 mM K-phosphate buffer (pH 6.5) was used and reactions were conducted at 30 °C if not stated otherwise. The purified enzyme was unstable if diluted therefore 5 g/L bovine serum albumin (BSA) was added to the dilution buffer as a protein stabilizer to retain its full catalytic activity. […] The content of the released glucose was determined spectrophotometrically as in [16, 47]. The activities (µmoles of glucose released per minute per mg of protein; U/mg) were calculated from initial velocities of the reaction. […] At least three independent measurements for each substrate and concentration were made.
The Ki values were calculated using enzyme kinetics module of the SigmaPlot (Systat Software, San Jose, CA, USA).
In experiment [6] the target is T1, BaAG2. Kind of experiment: Differential scanning fluorimetry (DSF) thermostability of BaAG2 with ligands. It is filed as binding. Particulars: 2 µM BaAG2, unliganded Tm 51 °C; 100 mM fructose, 50 mM palatinose, 50 mM glucose, 5 mM Tris, 5 mM acarbose; HEPES pH 7.0.
Description: The reaction was conducted in 50 mM 4-(2-hydroxyethyl)-1-piperazineethanesulfonic acid) (HEPES) buffer (pH 7.0) with 150 mM NaCl. […] At least two independent experiments were performed with two technical replicates.
The subject of the next experiment is B. adeninivorans. As to the kind of experiment: Growth of B. adeninivorans on sugars (OD 600 nm). It is filed as cell-based, Blastobotrys adeninivorans. Particulars: YNB medium, 2 g/L sugar, 24 h, 37 °C. The method, then: Blastobotrys (Arxula) adeninivorans LS3 (CBS 8244) was kindly provided by Assoc. Prof. V. Passoth (SLU, Uppsala, Sweden). The yeast strain was grown on solid YPD medium (20 g/L peptone, 20 g/L glucose, 10 g/L yeast extract, 20 g/L agar) at 30 °C 24 h for harvesting the cells for genomic DNA extraction. E. coli DH5α (Thermo Fisher Scientific, Waltham, MA, USA) was used for DNA cloning and plasmid production. E. coli BL21 (DE3) was used for heterologous expression of BaAG2. The ability of B. adeninivorans to grow on sugars was assayed as in [12]. Yeast cells grown overnight on BD Difco YNB medium (Thermo Fisher Scientific, Waltham, MA, USA) without amino acids containing 2 g/L glucose were used as inoculum. […] The cells were incubated on Greiner 96-well flat-bottom transparent polystyrene microplates (Greiner Bio-One, Frickenhausen, Germany) in 200 µl under agitation for 24 h at 37 °C. Optical density of the culture at 600 nm was measured against inoculated medium without sugar at the beginning and end of the experiment using an Infinite M200 PRO microplate reader (Tecan Group Ltd., Männedorf, Switzerland) equipped with Tecan i-control v. 1.7 software from the same provider. Two independent experiments with two parallel measurements were conducted.

Experiment [7] addresses T1, BaAG2. Kind of experiment: Kinetics of hydrolysis of pNPG and sugars by BaAG2. The note with it: for Vmax ± SD / kcat ± SD / Km: substrate hydrolysis, pH 6.5, 30 °C; for kcat ± SD: calculated from Vmax with Mw 67,901 Da; for Km: read-out: Km ± SD.
Description: as §1
The target of experiment [8] is T1, BaAG2. Kind of experiment: TLC assay of panose hydrolysis by BaAG2. Particulars: 50 mM panose, extended (22 h) reaction time.
Description: The reaction samples were analyzed using TLC.
To visualize hydrolysis and polymerization products, the TLC analysis was conducted as in [16] on Silica Gel 60 F254 plates with concentrating zone (Merck, Darmstadt, Germany). 0.5 µl of the stopped reaction mixture were spotted onto the plate and sugars were separated with two runs in chloroform:acetic acid:water (6:7:1, v:v:v) [67]. For the analysis of products of polysaccharide degradation, 3 µl of the reaction mixtures were spotted. Sugars were visualized by immersion of the plates in aniline-diphenylamine reagent and subsequent heating of the dried plates at 100 °C [68].
Experiment [9] concerns the target T1, BaAG2. As to the kind of experiment: Degradation of glucose polymers by BaAG2 (glucose release, TLC). It is filed as biochemical. The note with it: polysaccharide 5 g/L, 20 µg/mL enzyme. How it is done: Polysaccharide concentration in the reaction mixture was 5 g/L, and 20 µg/mL of the enzyme was used. At desired time points (2 h, 24 h, 74/96 h) aliquots were withdrawn and heated to stop the reaction. A negative control containing 20 µg/mL BSA instead of the enzyme was incubated alongside. Concentration of released glucose was measured as described above and 3 µl of the samples were analysed on TLC. Maltase from S. cerevisiae (ScMAL62), amyloglycosidase from Aspergillus niger (Sigma-Aldrich, Merck, Darmstadt, Germany) and α-amylase from Aspergillus oryzae (Sigma-Aldrich, Merck, Darmstadt, Germany) were reacted with tested glucose polymers for comparison.

“Also recorded” adds a separate entry of the source. Where two headings read alike, the source gives them in different places.

As for `OC[C@H]1O[C@H](O[C@H]2[C@H](O)[C@@H](O)C(O)O[C@@H]2CO)[C@H](O)[C@@H](O)[C@@H]1O` (mixture of isomers) [Maltose], the “hydrolysis by BaAG2” value at BaAG2 [1] was “could hydrolyze”. Also, the “assimilation by B. adeninivorans CBS 8244” value (“assimilation” below) in experiment [2] is reported as “assimilates”. Further, the “Catalytic constant (kcat)” value in [3] is 144 s⁻¹. Moreover, in experiment [4], the kcat was 709 s⁻¹.

For the molecule `C[C@H]1O[C@H](O[C@H]2[C@H](O)[C@@H](O)[C@@H](O[C@H]3[C@H](O)[C@@H](O)C(O)O[C@@H]3CO)O[C@@H]2CO)[C@H](O)[C@@H](O)[C@@H]1N[C@H]1C=C(CO)[C@@H](O)[C@H](O)[C@H]1O` (stereo partly shown) [Acarbose, reference compound], the Ki on BaAG2 [5] (read-out: Ki ± SD, values marked * are given in µM, pH 6.5, 30 °C) amounted to 0.83 ± 0.01 µM; at BaAG2 [5] (read-out: Ki ± SD, values marked * are given in µM, pH 6.5, 30 °C, listed as acarbose), 0.8 µM.

With `O=C(CO)[C@@H](O)[C@H](O)[C@H](O)CO` [Fructose], the “Inhibition Mode” value at BaAG2 [5] is given as “Competitive”.

For `OC[C@H]1OC(O)[C@H](O)[C@@H](O)[C@@H]1O` (stereo partly shown) [Glucose], on BaAG2 [6], the “increase of Tm in the presence of a ligand” value was 4.4 °C. For the same molecule, the “Inhibition Mode” value at BaAG2 [5] was “Competitive”.

Consider `OC[C@H]1O[C@H](OC[C@H]2OC(O)[C@H](O)[C@@H](O)[C@@H]2O)[C@H](O)[C@@H](O)[C@@H]1O` (stereo partly shown) [Isomaltose], for which the “hydrolysis by BaAG2” value at BaAG2 [1] was “not hydrolyzed”; at BaAG2 [1] (listed as isomaltose) it was “could not hydrolyze”. Moreover, the “growth of B. adeninivorans on sugar” value in the experiment with B. adeninivorans was “new growth substrates”. Further, the “Inhibition Mode” value on BaAG2 [5] was “Competitive”.

Regarding `OC[C@H]1O[C@@](CO)(O[C@H]2O[C@H](CO)[C@@H](O)[C@H](O)[C@H]2O)[C@@H](O[C@H]2O[C@H](CO)[C@@H](O)[C@H](O)[C@H]2O)[C@@H]1O` [Melezitose], on BaAG2 [1], the “hydrolysis by BaAG2” value was “could hydrolyze”. In experiment [2], the “assimilation” value is “assimilates”. For the same molecule, at BaAG2 [7], the “Vmax ± SD” value is 231.0 ± 31.8 µmol/mg/min and the “kcat ± SD” value is 261.4 ± 36.1 s⁻¹.

`OC[C@H]1O[C@H](OC[C@H]2OC(O)(CO)[C@@H](O)[C@@H]2O)[C@H](O)[C@@H](O)[C@@H]1O` (stereo partly shown) [Palatinose]: at BaAG2 [1], the “hydrolysis by BaAG2” value is “not hydrolyzed; also recorded: could not hydrolyze”. Moreover, the “growth of B. adeninivorans on sugar” value in the experiment with B. adeninivorans was “new growth substrates”.

With `OC[C@H]1O[C@@](CO)(O[C@H]2O[C@H](CO)[C@@H](O)[C@H](O)[C@H]2O)[C@@H](O)[C@@H]1O` [Sucrose, α-D-Glc-(1→2)-β-D-Fru], the “hydrolysis by BaAG2” value on BaAG2 [1] is recorded as “could hydrolyze”. Also, in experiment [2], the “assimilation” value is “assimilates”.

As for `O=C(CO)[C@@H](O[C@H]1O[C@H](CO)[C@@H](O)[C@H](O)[C@H]1O)[C@H](O)[C@H](O)CO` [Turanose], the “hydrolysis by BaAG2” value on BaAG2 [1] is on record as “could hydrolyze”. In addition, the “growth of B. adeninivorans on sugar” value in the experiment with B. adeninivorans was “new growth substrates”. At BaAG2 [7], the Km was 45.2 ± 6 mM, the “Vmax ± SD” value is 190.1 ± 10.4 µmol/mg/min and the “kcat ± SD” value is 215.1 ± 11.9 s⁻¹.

Take `O=[N+]([O-])c1ccc(O[C@@H]2O[C@H](CO)[C@H](O)[C@H](O)[C@H]2O)cc1` [pNPG, p-nitrophenyl-α-D-glucopyranoside, reference compound]: the “hydrolysis by BaAG2” value at BaAG2 [1] is listed as “could hydrolyze”. Moreover, on BaAG2 [7], the Vmax entry is recorded as “over 750 U/mg”, the Km is 0.76 ± 0.03 mM, the “Vmax ± SD” value worked out at 751.3 ± 14.5 µmol/mg/min and the “kcat ± SD” value is 850.2 ± 16.4 s⁻¹.

With `OC[C@H]1O[C@H](OC[C@H]2O[C@H](O[C@H]3[C@H](O)[C@@H](O)C(O)O[C@@H]3CO)[C@H](O)[C@@H](O)[C@@H]2O)[C@H](O)[C@@H](O)[C@@H]1O` (stereo partly drawn) [panose, α-D-Glc-(1→6)-α-D-Glc-(1→4)-D-Glc], the “hydrolysis by BaAG2” value on BaAG2 [8] was “not hydrolyzed”.

Consider `OC[C@H]1O[C@H](O[C@H]2O[C@H](CO)[C@@H](O)[C@H](O)[C@H]2O)[C@H](O)[C@@H](O)[C@@H]1O` [trehalose], for which the “assimilation” value in experiment [2] was “assimilates”.

Take `CO[C@H]1O[C@H](CO)[C@@H](O)[C@H](O)[C@H]1O` [α-MG, α-methylglucoside, reference compound]: the entries for the “hydrolysis by BaAG2” value at BaAG2 [1] and on BaAG2 [1] (listed as α-methylglucoside) were “could not hydrolyze” and “not hydrolyzed”, respectively. Also, the “assimilation” value in [2] was “assimilates”. The “Inhibition Mode” value on BaAG2 [5] was “Competitive”.

Take Maltotriose: at BaAG2 [1], the “hydrolysis by BaAG2” value is listed as “could hydrolyze”. Moreover, the “growth of B. adeninivorans on sugar” value in the experiment on B. adeninivorans is reported as “new growth substrates”.

In the case of Maltulose, at BaAG2 [1], the “hydrolysis by BaAG2” value is “could hydrolyze”. Further, the “growth of B. adeninivorans on sugar” value with B. adeninivorans is reported as “new growth substrates”. Further, on BaAG2 [7], the Michaelis constant (Km) came to 7.8 ± 1 mM, the “Vmax ± SD” value came to 52.2 ± 1.8 µmol/mg/min and the “kcat ± SD” value is 59.1 ± 2.1 s⁻¹.

As for amylopectin, the figures for the glucose released on BaAG2 [9] (by 24 h) and at BaAG2 [9] (by 72 h) were 0.1 g/L and 0.3 g/L, respectively.
